According to patent US20110152166A1, “METHOD OF MODULATION OF PROTEIN PHOSPHORYLATION-DEPENDENT CONFORMATIONAL TRANSITIONS WITH LOW MOLECULAR WEIGHT COMPOUNDS” (priority 2006, published 2011):

How the values were obtained:
GST-S6K11-365 = assay: Surface plasmon resonance, S6K1 binding to tail peptides; design: species or system rat; settings: K144N versus wt
Protocol: FIG. 13. The tail phosphate synergistically enhances the ability of the HM phosphate to activate S6K, dependent on the tail phosphate-binding site. (A) The kinase activity of purified kinase domain of S6K1 (S6K11-364), pre-phosphorylated by PDK1 in the activation loop, was determined in the presence of increasing concentrations of synthetic S6K1 tail peptide (residues 366-395) that was either non-phosphorylated (S371/T389), phosphorylated at Ser371 (pS371/T389) or Thr389 (5371/pT389) or phosphorylated at both sites (pS371/pT389). (B) The kinase activity of S6K11-364 and S6K11-364K144N, either pre-phosphorylated or not by PDK1, was determined in the absence or presence of 90 μM S371/pT389 or pS371/pT389. (C) pS371/pT389 S6K1 tail peptide was biotinylated and used to coat streptavidin Sensor Chips. The chips were thereafter analyzed for binding to purified GST-S6K11-365 or GST-56K11-365K144N. (A-C) Experiments were repeated at least 3 times and activity data (expressed as percent) are means±SD.
Sixty 146 cm^2 dishes with COST cells were co-transfected with pEBG-2T-S6K1-365 and pCMV5-myc-PDK1 (ratio 3:1) using calcium phosphate precipitation or with pEBG-2T-PKCζ and pCMV5-myc-PDK1 (ratio 3:1) using Fugene HD according to the manufacturers Instructions. Two days after transfection, the cells were harvested in lysis buffer as described above. […]

[1] = target: T1, Thr221-phosphorylated S6K11-364 (Rattus norvegicus, UniProt P67999); assay: S6K1 in vitro reconstitution kinase assay with tail peptides; format: biochemical
T1 construct: Purified HA-S6K1-364 was incubated with synthetic S6K1 (rat) tail peptides; made in house; host or cells: COS7, co-transfected with myc-PDK1; anti-HA immunoprecipitate
T1 sequence (P67999 24-387): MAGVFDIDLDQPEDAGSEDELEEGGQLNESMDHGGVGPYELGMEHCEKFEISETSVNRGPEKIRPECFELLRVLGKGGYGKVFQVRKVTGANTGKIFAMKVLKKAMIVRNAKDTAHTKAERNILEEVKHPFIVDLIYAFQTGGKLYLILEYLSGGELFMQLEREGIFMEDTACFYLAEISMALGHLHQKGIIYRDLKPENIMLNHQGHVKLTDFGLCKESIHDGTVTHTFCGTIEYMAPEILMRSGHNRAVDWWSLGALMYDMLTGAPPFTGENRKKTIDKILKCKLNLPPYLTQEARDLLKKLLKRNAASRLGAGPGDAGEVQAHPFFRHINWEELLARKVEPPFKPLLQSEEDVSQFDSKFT
From the text: We established an in vitro reconstitution assay that could test a direct activation of the AGC kinase domain by the tail phosphate and characterize its cooperation with the HM and activation loop phosphates. The deletion mutant S6K11-364, which contains the kinase domain, but lacks the region of the tail containing the tail site and the HM as well as the C-terminal autoinhibitory domain, was expressed and purified from COS7 cells, either non-phosphorylated or phosphorylated at T221 in the activation loop, achieved by co-expression with PDK1. Purified S6K11-364 was then incubated with synthetic peptides of the S6K1 tail (residues 366-395: QTPVDS^371PDDSTLSESANQVFLGFT^389YVAPSV), which were either non-phosphorylated (S371/T389), phosphorylated at the tail site (pS371/T389), phosphorylated in the HM (S371/pT389) or phosphorylated at both sites (pS371/pT389). Subsequently, the kinase activity of S6K11-364 was determined.
Kinase assays for PKB, RSK, S6K, MSK were done as described previously (Frodin et al., 2002). […] After washing with 150 mM orthophosphoric acid, [^32P]phosphate incorporated into peptide substrate was quantified in an FLA-3000 apparatus (Fujifilm). […]

decrease of binding of S6K11-365 to peptide by the K144N mutation (GST-S6K11-365): about 40%
stimulation of kinase activity (in words) [1]: did not stimulate
Substance: pS371/T389: synthetic S6K1 tail peptide (residues 366-395) phosphorylated at the tail site
